Results as given in patent publication US20160090556A1, “PRODUCTS COMPRISING MALODOR REDUCTION MATERIALS” (The Procter & Gamble Company, priority 2014, published 2016).
Like-named read-outs stand apart in the source and are kept apart here.

Legend:
[1] = Probability of Ingredient Color Instability; assay type: physicochemical; settings: for Comment Code: Probability of Ingredient Color Instability: codes E/F of the Comment Code, Table 1
[2] = Liquid dish neat product liquid-air partition coefficient; assay type: physicochemical
[3] = class code letter within Comment Code
[4] = codes K/L of the Comment Code, Table 1

SMILES | Probability of Ingredient Color Instability (Comment Code E/F) [1] | Log of liquid dish neat product liquid-air partition coefficient (Comment Code K/L) [2] | Probability of Ingredient Color Instability (Comment Code E/F) [1, 3] | Log of liquid dish neat product liquid-air partition coefficient (Comment Code K/L) [2, 3] | further results
CC(C)c1ccc(CCC=O)cc1 [Material 826] | F (Probability of Ingredient Color Instability<71%) | K (Log of liquid dish neat product liquid-air partition coefficient greater than or equal to −7) |  |  | 
CCCCCCCC/C=C\CC=O [Material 884] | F (Probability of Ingredient Color Instability<71%) | K (Log of liquid dish neat product liquid-air partition coefficient greater than or equal to −7) |  |  | 
CCCCCCC/C=C\CCC=O [Material 1045] | F (Probability of Ingredient Color Instability<71%) | K (Log of liquid dish neat product liquid-air partition coefficient greater than or equal to −7) |  |  | 
CC1=CCC(C(C)CC=O)CC1 (stereo not drawn) [Material 159] |  |  | F (Probability of Ingredient Color Instability<71%) | K (Log of liquid dish neat product liquid-air partition coefficient greater than or equal to −7) | 
C=CC(C)CC/C=C(\C)CCC=O (stereo not drawn) [Material 358] |  |  | F (Probability of Ingredient Color Instability<71%) | K (Log of liquid dish neat product liquid-air partition coefficient greater than or equal to −7) | 
CC1=C(CCC(C)C=O)C(C)(C)CCC1 (stereo not drawn) [Material 560] |  |  | F (Probability of Ingredient Color Instability<71%) | K (Log of liquid dish neat product liquid-air partition coefficient greater than or equal to −7) | 
CC(C)=CCCC1=CCC(C)(C=O)CC1 (stereo not drawn) [Material 988] | F (Probability of Ingredient Color Instability<71%) | K (Log of liquid dish neat product liquid-air partition coefficient greater than or equal to −7) |  |  | 
C=CCc1ccc(OC(C)=O)c(OC)c1 [Material 374] |  |  | F (Probability of Ingredient Color Instability<71%) | K (Log of liquid dish neat product liquid-air partition coefficient greater than or equal to −7) | 
CC1CC=CCCCCCCCC(=O)OCC1 (stereo not drawn) [Material 52] |  |  | F (Probability of Ingredient Color Instability<71%) | K (Log of liquid dish neat product liquid-air partition coefficient greater than or equal to −7) | 
CCCCCCCCCCCCCC=O [Material 36] |  |  | F (Probability of Ingredient Color Instability<71%) | K (Log of liquid dish neat product liquid-air partition coefficient greater than or equal to −7) | 
N#CC(=C1CCCCC1)c1ccccc1 [Material 945] | F (Probability of Ingredient Color Instability<71%) | K (Log of liquid dish neat product liquid-air partition coefficient greater than or equal to −7) |  |  | 
CC1=CCCC2(C)OC2CCC(C)=CCC1 (racemic) [Material 568] | F (Probability of Ingredient Color Instability<71%) | K (Log of liquid dish neat product liquid-air partition coefficient greater than or equal to −7) |  |  | 
C=C(C)C1CC=C(COC(C)=O)CC1 (stereo not drawn) [Material 947] | F (Probability of Ingredient Color Instability<71%) | K (Log of liquid dish neat product liquid-air partition coefficient greater than or equal to −7) |  |  | 
CC(C=O)=CCC1C(C)=CCCC1(C)C (stereo not drawn) [Material 1116] |  |  |  |  | Comment Code: Probability of Ingredient Color Instability [1]: F (Probability of Ingredient Color Instability<71%); Comment Code: Log of liquid dish neat product liquid-air partition coefficient [2, 4]: K (Log of liquid dish neat product liquid-air partition coefficient greater than or equal to −7)
CCOC(=O)C1OC1(C)c1ccccc1 (stereo not drawn) [Material 377] |  |  | F (Probability of Ingredient Color Instability<71%) | K (Log of liquid dish neat product liquid-air partition coefficient greater than or equal to −7) | 
CC1=C2CCC3(C)OC3C2C(C)(C)CCC1 (stereo not drawn) [Material 624] | F (Probability of Ingredient Color Instability<71%) | K (Log of liquid dish neat product liquid-air partition coefficient greater than or equal to −7) |  |  | Comment Code: Log of liquid dish neat product liquid-air partition coefficient ([2]; code letters K, L): K (Log of liquid dish neat product liquid-air partition coefficient greater than or equal to −7)
CC(CC=O)CCc1ccccc1 (stereo not drawn) [Material 807] | F (Probability of Ingredient Color Instability<71%) | K (Log of liquid dish neat product liquid-air partition coefficient greater than or equal to −7) |  |  | 
CCCCCCCCCCC=CC=O [Material 930] | F (Probability of Ingredient Color Instability<71%) | K (Log of liquid dish neat product liquid-air partition coefficient greater than or equal to −7) |  |  | 

SMILES | Probability of Ingredient Color Instability (Comment Code E/F) [1] | Log of liquid dish neat product liquid-air partition coefficient (Comment Code K/L) [2] | Probability of Ingredient Color Instability (Comment Code E/F) [1, 3] | Log of liquid dish neat product liquid-air partition coefficient (Comment Code K/L) [2, 3] | further results
CCCCCCCCCCCC=O [Material 178] |  |  | F (Probability of Ingredient Color Instability<71%) | K (Log of liquid dish neat product liquid-air partition coefficient greater than or equal to −7) | 
CCCCCCCCCC=CC=O [Material 806] | F (Probability of Ingredient Color Instability<71%) | K (Log of liquid dish neat product liquid-air partition coefficient greater than or equal to −7) |  |  | 
CCCCCCCCCC(C)C=O (stereo not drawn) [Material 103] |  |  | F (Probability of Ingredient Color Instability<71%) | K (Log of liquid dish neat product liquid-air partition coefficient greater than or equal to −7) | 
CC1=C2CC(C(C)(C)O)CCC2(C)CCC1 (stereo not drawn) [Material 872] | F (Probability of Ingredient Color Instability<71%) | K (Log of liquid dish neat product liquid-air partition coefficient greater than or equal to −7) |  |  | Comment Code: Log of liquid dish neat product liquid-air partition coefficient ([2]; code letters K, L): K (Log of liquid dish neat product liquid-air partition coefficient greater than or equal to −7)
CC(C=O)Cc1ccc(C(C)C)cc1 (stereo not drawn) [Material 478] |  |  | F (Probability of Ingredient Color Instability<71%) | K (Log of liquid dish neat product liquid-air partition coefficient greater than or equal to −7) | 
CC(C)=CCCC(C)(O)C1CC=C(C)CC1 (stereo not drawn) [Material 718] | F (Probability of Ingredient Color Instability<71%) | K (Log of liquid dish neat product liquid-air partition coefficient greater than or equal to −7) |  |  | 
CC1CCC2(O1)C(C)(C)CCCC2(C)O (stereo not drawn) [Material 893] | F (Probability of Ingredient Color Instability<71%) | K (Log of liquid dish neat product liquid-air partition coefficient greater than or equal to −7) |  |  | 
CC1(O)CCOC2(CCCCC2)C1 (stereo not drawn) [Material 16] |  |  | F (Probability of Ingredient Color Instability<71%) | K (Log of liquid dish neat product liquid-air partition coefficient greater than or equal to −7) | 
CCC1=C(O)C(=O)C(C)O1 (stereo not drawn) [Material 259] |  |  | F (Probability of Ingredient Color Instability<71%) | K (Log of liquid dish neat product liquid-air partition coefficient greater than or equal to −7) | 
CC=CC(=O)OC(C)C1CCCCC1 (stereo not drawn) [Material 475] |  |  | F (Probability of Ingredient Color Instability<71%) | K (Log of liquid dish neat product liquid-air partition coefficient greater than or equal to −7) | 
CCCCCCC(CO)C(C)=O (stereo not drawn) [Material 106] |  |  | F (Probability of Ingredient Color Instability<71%) | K (Log of liquid dish neat product liquid-air partition coefficient greater than or equal to −7) | 
CCCCCC1C(=O)CCC1CC(=O)OC (stereo not drawn) [Material 113] |  |  | F (Probability of Ingredient Color Instability<71%) | K (Log of liquid dish neat product liquid-air partition coefficient greater than or equal to −7) | 
C/C=C/c1cc(OC)c(OC)cc1OC [Material 924] | F (Probability of Ingredient Color Instability<71%) | K (Log of liquid dish neat product liquid-air partition coefficient greater than or equal to −7) |  |  | 
CC1(C)C2CC=C(CCC=O)C1C2 (stereo not drawn) [Material 781] | F (Probability of Ingredient Color Instability<71%) | K (Log of liquid dish neat product liquid-air partition coefficient greater than or equal to −7) |  |  | 
CC1CC(C)(c2ccccc2)OC(C)O1 (stereo not drawn) [Material 1126] |  |  |  |  | Comment Code: Probability of Ingredient Color Instability [1]: F (Probability of Ingredient Color Instability<71%); Comment Code: Log of liquid dish neat product liquid-air partition coefficient [2, 4]: K (Log of liquid dish neat product liquid-air partition coefficient greater than or equal to −7)
O=C(Oc1ccccc1)c1ccccc1 [Material 965] | F (Probability of Ingredient Color Instability<71%) | K (Log of liquid dish neat product liquid-air partition coefficient greater than or equal to −7) |  |  | 
CC(C)=CCCC1=CCC(C=O)CC1 (stereo not drawn) [Material 211] |  |  | F (Probability of Ingredient Color Instability<71%) | K (Log of liquid dish neat product liquid-air partition coefficient greater than or equal to −7) | 
